What follows are compounds tested against T1, JAK3 (recombinant human kinase domain; h-jak3(810-1124)) (Homo sapiens, UniProt P52333) (assay: Determination of IC50 of Janus Kinase (JAK) inhibition: JAK3, radioactive end-point assay with 33P-ATP). Conditions: JAK3 kinase domain; ATP 1.5 uM, peptide 50 uM, 20 minutes, room temperature, 10% DMSO; read-out: Ic50 h-jak3(810-1124)-sf9-c:no additive.
T1 construct: h-jak3(810- 1124)-sf9-c; made in house; host or cells: Sf9 insect cells
Format: biochemical

T1 sequence (P52333 810-1124): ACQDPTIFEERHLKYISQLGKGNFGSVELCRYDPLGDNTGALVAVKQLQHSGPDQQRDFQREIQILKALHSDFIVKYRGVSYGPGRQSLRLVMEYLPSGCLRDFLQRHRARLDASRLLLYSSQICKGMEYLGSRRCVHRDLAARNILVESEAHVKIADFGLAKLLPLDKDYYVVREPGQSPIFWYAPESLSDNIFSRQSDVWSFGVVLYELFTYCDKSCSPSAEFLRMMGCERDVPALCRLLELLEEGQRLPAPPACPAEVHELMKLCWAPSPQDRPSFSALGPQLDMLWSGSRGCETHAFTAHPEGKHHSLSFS

IC50 [nM] | SMILES
0.32 | C[C@H](NC(=O)c1c[nH]c2ncc(-c3ccc(C(=O)N4C5CCC4CC5)s3)nc12)C(C)(C)C [Example I-177, 2-[5-(7-Aza-bicyclo[2.2.1]heptane-7-carbonyl)-thiophen-2-yl]-5H-pyrrolo[2,3-b]pyrazine-7-carboxylic acid ((S)-1,2,2-trimethyl-propyl)-amide]
131 | CC(C)(CCO)NC(=O)c1c[nH]c2ncc(C3CC3)nc12 [Example I-42, 2-Cyclopropyl-5H-pyrrolo[2,3-b]pyrazine-7-carboxylic acid (3-hydroxy-1,1-dimethyl-propyl)-amide]
0.29 | C[C@H](CO)NC(=O)c1ccc(-c2cnc3[nH]cc(C(=O)N[C@@H](C)C(C)(C)C)c3n2)s1 [Example I-169, 2-[5-((R)-2-Hydroxy-1-methyl-ethylcarbamoyl)-thiophen-2-yl]-5H-pyrrolo[2,3-b]pyrazine-7-carboxylic acid ((S)-1,2,2-trimethyl-propyl)-amide]
222 | C[C@@H](NC(=O)c1c[nH]c2ncc(Oc3ccccc3)nc12)C1CCCCC1 [Example I-129, 2-Phenoxy-5H-pyrrolo[2,3-b]pyrazine-7-carboxylic acid ((R)-1-cyclohexyl-ethyl)-amide]
0.32 | C[C@H](NC(=O)c1c[nH]c2ncc(-c3ccc(C(=O)N4CC(C#N)C4)s3)nc12)C(C)(C)C [Example I-178, 2-[5-(3-Cyano-azetidine-1-carbonyl)-thiophen-2-yl]-5H-pyrrolo[2,3-b]pyrazine-7-carboxylic acid ((S)-1,2,2-trimethyl-propyl)-amide]
346 | CC(=O)N1CCC(CNC(=O)c2c[nH]c3ncc(C4CC4)nc23)C1 (stereo not shown) [Example I-137, 2-Cyclopropyl-5H-pyrrolo[2,3-b]pyrazine-7-carboxylic acid (1-acetyl-pyrrolidin-3-ylmethyl)-amide]
2.99 | C[C@H](NC(=O)c1c[nH]c2ncc(-c3cn(-c4cc(C(F)(F)F)ccc4F)cn3)nc12)C(C)(C)C [Example I-149, 2-[1-(2-Fluoro-5-trifluoromethyl-phenyl)-1H-imidazol-4-yl]-5H-pyrrolo[2,3-b]pyrazine-7-carboxylic acid ((S)-1,2,2-trimethyl-propyl)-amide]
0.53 | CC(Cc1ccc(F)cc1)NC(=O)c1ccc(-c2cnc3[nH]cc(C(=O)N[C@@H](C)C(C)(C)C)c3n2)s1 (stereo partly drawn) [Example I-159, 2-{5-[2-(4-Fluoro-phenyl)-1-methyl-ethylcarbamoyl]-thiophen-2-yl}-5H-pyrrolo[2,3-b]pyrazine-7-carboxylic acid ((S)-1,2,2-trimethyl-propyl)-amide]
13.4 | CC(C)C(C#N)NC(=O)c1c[nH]c2ncc(C3CC3)nc12 (stereo not shown) [Example I-89, 2-Cyclopropyl-5H-pyrrolo[2,3-b]pyrazine-7-carboxylic acid (1-cyano-2-methyl-propyl)-amide]
0.5 | C[C@H](NC(=O)c1c[nH]c2ncc(-c3ccc(C(=O)NCc4ccccc4)s3)nc12)C(C)(C)C [Example I-226, 2-(5-Benzylcarbamoyl-thiophen-2-yl)-5H-pyrrolo[2,3-b]pyrazine-7-carboxylic acid ((S)-1,2,2-trimethyl-propyl)-amide]
409 | CC(C)(CO)CNC(=O)c1c[nH]c2ncc(N3CCC(C)(C)C3)nc12 [Example I-14, 2-(3,3-Dimethyl-pyrrolidin-1-yl)-5H-pyrrolo[2,3-b]pyrazine-7-carboxylic acid (3-hydroxy-2,2-dimethyl-propyl)-amide]
276 | C[C@@H](NC(=O)c1c[nH]c2ncc(-c3nccs3)nc12)C(C)(C)O [Example I-111, 2-Thiazol-2-yl-5H-pyrrolo[2,3-b]pyrazine-7-carboxylic acid ((R)-2-hydroxy-1,2-dimethyl-propyl)-amide]
16 | CC(C)(C#N)C(NC(=O)c1c[nH]c2ncc(C3CC3)nc12)C1CC1 (stereo not shown) [Example I-81, 2-Cyclopropyl-5H-pyrrolo[2,3-b]pyrazine-7-carboxylic acid (2-cyano-1-cyclopropyl-2,2-dimethyl-ethyl)-amide]
0.23 | Cc1cc(-c2cnc3[nH]cc(C(=O)N[C@@H](C)C(C)(C)C)c3n2)sc1C(=O)N1CCS(=O)(=O)CC1 [Example I-220, 2-[5-(1,1-Dioxo-1λ^6-thiomorpholine-4-carbonyl)-4-methyl-thiophen-2-yl]-5H-pyrrolo[2,3-b]pyrazine-7-carboxylic acid ((S)-1,2,2-trimethyl-propyl)-amide]
4590 | CCNC(=O)c1c[nH]c2ncc(Oc3cccc(C(C)C)c3)nc12 [Example I-250, 2-(3-Isopropyl-phenoxy)-5H-pyrrolo[2,3-b]pyrazine-7-carboxylic acid ethylamide]
86.2 | C[C@@H](NC(=O)c1c[nH]c2ncc(-c3ccccn3)nc12)C(C)(C)O [Example I-112, 2-Pyridin-2-yl-5H-pyrrolo[2,3-b]pyrazine-7-carboxylic acid ((R)-2-hydroxy-1,2-dimethyl-propyl)-amide]
0.16 | C[C@H](NC(=O)c1c[nH]c2ncc(-c3ccc(C(=O)NC4CCS(=O)(=O)CC4)s3)nc12)C(C)(C)C [Example I-212, 2-[5-(1,1-Dioxo-hexahydro-1λ^6-thiopyran-4-ylcarbamoyl)-thiophen-2-yl]-5H-pyrrolo[2,3-b]pyrazine-7-carboxylic acid ((S)-1,2,2-trimethyl-propyl)-amide]

IC50 [nM] | SMILES
0.32 | C[C@H](NC(=O)c1c[nH]c2ncc(-c3ccc(C(=O)N4CCC(C(=O)O)CC4)s3)nc12)C(C)(C)C [Example I-182, 1-{5-[7-((S)-1,2,2-Trimethyl-propylcarbamoyl)-5H-pyrrolo[2,3-b]pyrazin-2-yl]-thiophene-2-carbonyl}-piperidine-4-carboxylic acid]
0.08 | Cc1cc(-c2cnc3[nH]cc(C(=O)N[C@@H](C)C(C)(C)C)c3n2)sc1C(=O)N1CC2(COC2)C1 [Example I-221, 2-[4-Methyl-5-(2-oxa-6-aza-spiro[3.3]heptane-6-carbonyl)-thiophen-2-yl]-5H-pyrrolo[2,3-b]pyrazine-7-carboxylic acid ((S)-1,2,2-trimethyl-propyl)-amide]
65.1 | CCC[C@@](C)(O)[C@@H](C)NC(=O)c1c[nH]c2ncc(C3CC3)nc12 [Example I-84, 2-Cyclopropyl-5H-pyrrolo[2,3-b]pyrazine-7-carboxylic acid ((1R,2R)-2-hydroxy-1,2-dimethyl-pentyl)-amide]
1100 | CCNC(=O)c1c[nH]c2ncc(Oc3ccccc3Cl)nc12 [Example I-265, 2-(2-Chloro-phenoxy)-5H-pyrrolo[2,3-b]pyrazine-7-carboxylic acid ethylamide]
0.14 | C[C@H](NC(=O)c1c[nH]c2ncc(-c3ccc(C(=O)NCC#N)s3)nc12)C(C)(C)C [Example I-172, 2-[5-(Cyanomethyl-carbamoyl)-thiophen-2-yl]-5H-pyrrolo[2,3-b]pyrazine-7-carboxylic acid ((S)-1,2,2-trimethyl-propyl)-amide]
56.7 | CC(C)NC(=O)c1c[nH]c2ncc(Oc3ccc4c(c3)[C@H](NC(=O)C3CCOCC3)CC4)nc12 [Example I-283, 2-{(R)-3-[(Tetrahydro-pyran-4-carbonyl)-amino]-indan-5-yloxy}-5H-pyrrolo[2,3-b]pyrazine-7-carboxylic acid isopropylamide]
24.4 | C[C@H](NC(=O)c1c[nH]c2ncc(Oc3ccccc3)nc12)C(C)(C)C [Example I-120, 2-Phenoxy-5H-pyrrolo[2,3-b]pyrazine-7-carboxylic acid ((S)-1,2,2-trimethyl-propyl)-amide]
78.6 | O=C(NC(C1CCCCC1)C1CC1)c1c[nH]c2ncc(C3CC3)nc12 (stereo not shown) [Example I-78, 2-Cyclopropyl-5H-pyrrolo[2,3-b]pyrazine-7-carboxylic acid (cyclohexyl-cyclopropyl-methyl)-amide]
6.73 | CC(C)[C@H](C)NC(=O)c1c[nH]c2ncc(C3CC3)nc12 [Example I-25, 2-Cyclopropyl-5H-pyrrolo[2,3-b]pyrazine-7-carboxylic acid ((S)-1,2-dimethyl-propyl)-amide]
143 | CC(C)NC(=O)c1c[nH]c2ncc(Oc3ccc4c(c3)[C@H](NC(N)=O)CC4)nc12 [Example I-299, 2-((R)-3-Ureido-indan-5-yloxy)-5H-pyrrolo[2,3-b]pyrazine-7-carboxylic acid isopropylamide]
493 | N#CCCCNC(=O)c1c[nH]c2ncc(C3CC3)nc12 [Example I-33, 2-Cyclopropyl-5H-pyrrolo[2,3-b]pyrazine-7-carboxylic acid (3-cyano-propyl)-amide]
29.4 | CC(C)(C)CNC(=O)c1c[nH]c2ncc(C3CC3)nc12 [Example I-55, 2-Cyclopropyl-5H-pyrrolo[2,3-b]pyrazine-7-carboxylic acid (2,2-dimethyl-propyl)-amide]
3300 | C[C@@H](NC(=O)c1c[nH]c2ncc(C#N)nc12)C(C)(C)O [Example I-115, 2-Cyano-5H-pyrrolo[2,3-b]pyrazine-7-carboxylic acid ((R)-2-hydroxy-1,2-dimethyl-propyl)-amide]
22 | C[C@H](NC(=O)c1c[nH]c2ncc(C3CC3)nc12)c1cc[nH]n1 [Example I-37, 2-Cyclopropyl-5H-pyrrolo[2,3-b]pyrazine-7-carboxylic acid [(S)-1-(1H-pyrazol-3-yl)-ethyl]-amide]
659 | C[C@@H](NC(=O)c1c[nH]c2ncc(Oc3ccccc3)nc12)C(C)(C)C [Example I-130, 2-Phenoxy-5H-pyrrolo[2,3-b]pyrazine-7-carboxylic acid ((R)-1,2,2-trimethyl-propyl)-amide]
15 | C[C@@H](NC(=O)c1c[nH]c2ncc(C3CC3)nc12)C1CCCCC1 [Example I-60, 2-Cyclopropyl-5H-pyrrolo[2,3-b]pyrazine-7-carboxylic acid ((R)-1-cyclohexyl-ethyl)-amide]
3 | C=Cc1cccc(-n2cnc(-c3cnc4[nH]cc(C(=O)N[C@@H](C)C(C)(C)C)c4n3)c2)c1 [Example I-163, 2-[1-(3-Vinyl-phenyl)-1H-imidazol-4-yl]-5H-pyrrolo[2,3-b]pyrazine-7-carboxylic acid ((S)-1,2,2-trimethyl-propyl)-amide]

Source: patent US20140155376A1, “PYRROLOPYRAZINE KINASE INHIBITORS” (Hoffmann-La Roche Inc., priority 2010, published 2014)
